Counter-ions that a name gives are not always drawn. Like-named read-outs stand apart in the source and are kept apart here. Residues, ends and D or L forms follow the SMILES beside them. *: point of attachment. Cbz = O=C(OCc1ccccc1)*; CHN2 = [N-]=[N+]=C*
What was measured:
SARS-CoV-2 [1] = tested on: SARS-CoV-2
in vitro = settings: human
SARS-CoV-2 [2] = assay: microbe, parasite or virus in culture
SARS-CoV-2 [3] = settings: read-out: Calu-3 CoV-2 EC50; Table 4; aggregated data, Geomean, n = 3; 48 h
HeLa-ACE2 cells = assay: cells; assay type: cell-based, human
[4] = CC50 [μM] (Geomeans, n ≥ 2 except where indicated: *n = 1)
[5] = Severe acute respiratory syndrome coronavirus 2, HeLa-ACE2, 24 h, read-out: CoV-2 EC50 [μM] (Geomeans, n ≥ 2)
[6] = Severe acute respiratory syndrome coronavirus 2, HeLa-ACE2, read-out: SARS-CoV-2 EC50
[7] = Homo sapiens, HeLa-ACE2, read-out: HeLa-ACE-2 EC50 [μM] (Geomeans, n ≥ 2)

With `COc1ccc2cc1Oc1ccc(cc1)C[C@H]1c3c(cc4c(c3Oc3cc5c(cc3OC)CCN(C)[C@@H]5C2)OCO4)CCN1C` [Cepharanthine] the “HeLa-ACE2 CC50/CoV-2 EC50” value (SARS-CoV-2 [1]) was over 25.76 and the CC50 (in vitro; [4]) was over 25.4 µM.
For `N#Cc1ccc2c(c1)[C@H]1CN(CCCCNC(=O)c3ccc(-c4ccccc4)cc3)C[C@@H]1CO2` [S-33084], the EC50 (SARS-CoV-2 [2]; [5]) was 3.91 µM, the “HeLa-ACE2 CC50/CoV-2 EC50” value (SARS-CoV-2 [1]) was over 6.34 and the CC50 (in vitro; [4]) was over 24.8 µM.
With `COc1ccc(C[C@H]2NC[C@H](O)[C@H]2OC(C)=O)cc1` [ANISOMYCIN] the EC50 (SARS-CoV-2 [3]) was 0.127 µM and the EC50 (SARS-CoV-2 [1]; read-out: HeLa-ACE2 CoV-2 EC50, Table 4, aggregated data, Geomean, n = 3) was 0.066 µM.
For `Cc1c(-c2ccc(O)cc2)n(Cc2ccc(OCCN3CCCCCC3)cc2)c2ccc(O)cc12` [bazedoxifene], the EC50 (SARS-CoV-2 [2]; [6]) was 3.47 µM.
With `Nc1ncnc2c1nc(Cl)n2[C@@H]1O[C@H](CO)[C@@H](O)[C@H]1O` [8-Chloroadenosine] the EC50 (SARS-CoV-2 [2]; [5]) was 0.927 µM, the “HeLa-ACE2 CC50/CoV-2 EC50” value (SARS-CoV-2 [1]) was over 12.80 and the CC50 (in vitro; [4]) was over 11.9 µM.
With `COc1cc(C[C@H]2c3cc(OC)c(OC)cc3CCN2C)c(Oc2cc3c(cc2OC)-c2c(OC)c(OC)cc4c2[C@H](C3)N(C)CC4)cc1OC` [Thalicarpine] the EC50 (HeLa-ACE2 cells; [7]) was over 9.6 µM, the “HeLa-ACE2 CC50/CoV-2 EC50” value (SARS-CoV-2 [1]) was over 45.67 and the CC50 (in vitro; [4]) was over 26.6 µM.
For `Cc1cccc(/C=N/Nc2cc(N3CCOCC3)n3nc(-c4ccncc4)cc3n2)c1` [APY0201], the EC50 (SARS-CoV-2 [2]; [5]) was 0.014 µM, the “HeLa-ACE2 CC50/CoV-2 EC50” value (SARS-CoV-2 [1]) was over 2853.95 and the CC50 (in vitro; [4]) was over 39.4 µM.
With `CCCCCCOC(=O)NC(=N)c1ccc(NCc2nc3cc(C(=O)N(CCC(=O)OCC)c4ccccn4)ccc3n2C)cc1` [Dabigatranetexilate mesilate] the “HeLa-ACE2 CC50/CoV-2 EC50” value (SARS-CoV-2 [1]) was over 6.50 and the CC50 (in vitro; [4]) was over 26.5 µM.
In the case of `CCN(CC)Cc1cc(Nc2ccnc3cc(Cl)ccc23)ccc1O` [Amodioaquine], the EC50 (SARS-CoV-2 [2]; [5]) is reported as 1.19 µM, the “HeLa-ACE2 CC50/CoV-2 EC50” value (SARS-CoV-2 [1]) is reported as over 33.48 and the CC50 (in vitro; [4]) is reported as over 39.8 µM.
In the case of `COC(CNCC(C)C)COc1c(C)csc1C(=O)CCc1ccccc1` (stereo not drawn) [LG-6-101], the EC50 (SARS-CoV-2 [2]; [5]) is reported as 3.46 µM, the “HeLa-ACE2 CC50/CoV-2 EC50” value (SARS-CoV-2 [1]) is reported as 10.3 and the CC50 (in vitro; [4]) is reported as over 35.6 µM.
In the case of `CCCCN1CC[C@H](c2ccc(N(C)C)cc2)[C@@H](COc2ccc(C(F)(F)F)cc2)C1` [NNC 090026], the EC50 (SARS-CoV-2 [2]; [5]) is reported as 2.75 µM, the EC50 (SARS-CoV-2 [2]; Severe acute respiratory syndrome coronavirus 2, HeLa-ACE2, read-out: SARS CoV-2 EC50 (μM)) is reported as 2.75 µM and the “HeLa-ACE2 CC50/CoV-2 EC50” value (SARS-CoV-2 [1]) is reported as over 5.59. For the same molecule, the CC50 (in vitro; [4]) was over 15.4 µM and the CC50 (in vitro; Uninfected HeLa-ACE2 CC50 (μM)) was over 15.4 µM.
With `O=C(c1ccc(OCCN2CCCCC2)cc1)c1c(-c2ccc(O)cc2)sc2cc(O)ccc12` [raloxifene] the EC50 (SARS-CoV-2 [2]; [6]) was 4.13 µM.
Work on `COc1ccc(C[C@H](N)C(=O)N[C@H]2[C@@H](O)[C@H](n3cnc4c(N(C)C)ncnc43)O[C@@H]2CO)cc1` [puromycin] yielded an EC50 (HeLa-ACE2 cells; Homo sapiens, HeLa-ACE2, read-out: EC50 (total cell numbers per well, toxicity in context of infection)) of 0.547 ± 0.027 µM and a CC50 (in vitro; HeLa-ACE2 CC50) of 2.45 ± 0.23 µM.
For `O=C(CCCN1CCN(c2ccc(F)cc2)CC1)NC1c2ccccc2CSc2ccccc21` (stereo not drawn) [MONATEPIL], the EC50 (SARS-CoV-2 [2]; [5]) was over 7.79 µM, the “HeLa-ACE2 CC50/CoV-2 EC50” value (SARS-CoV-2 [1]) was over 5.01 and the CC50 (in vitro; [4]) was over 39 µM.
With `CN1[C@@H]2CC[C@H]1C[C@@H](N1Cc3ccc4ccccc4c3C1=O)C2` [CR-3124] the “HeLa-ACE2 CC50/CoV-2 EC50” value (SARS-CoV-2 [1]) was over 6.67 and the CC50 (in vitro; [4]) was over 39.8 µM.
For `OC(CNCC(O)C1CCc2cc(F)ccc2O1)C1CCc2cc(F)ccc2O1` (stereo not drawn) [nebivolol hydrochloride], the EC50 (SARS-CoV-2 [2]; [5]) was 2.96 µM, the “HeLa-ACE2 CC50/CoV-2 EC50” value (SARS-CoV-2 [1]) was over 3.75 and the CC50 (in vitro; [4]) was over 11.1 µM.
For `Cc1ccc(C(=O)Nc2ccc(CN3CCN(C)CC3)c(C(F)(F)F)c2)cc1C#Cc1cnc2cccnn12` [Ponatinib], the EC50 (HeLa-ACE2 cells; [7]) was 1.25 µM and the EC50 (SARS-CoV-2 [2]; [5]) was 1.61 µM.
With `CN1C[C@@H]2c3ccccc3Oc3ccc(Cl)cc3[C@H]2C1` (racemic) [Asenapine maleate] the CC50 (in vitro; [4]) was over 35.6 µM.
For `CC(C)CC(NC(=O)OCc1ccccc1)C(=O)NC(C(=O)NCC(=O)C=[N+]=[N-])C(C)C` (stereo not drawn) [Z LVG CHN2] (Cbz-Leu-Val-Gly-CHN2; configuration not given here), the EC50 (SARS-CoV-2 [2]; [5]) was 0.072 µM, the “HeLa-ACE2 CC50/CoV-2 EC50” value (SARS-CoV-2 [1]) was over 554.29 and the CC50 (in vitro; [4]) was over 39.8 µM.
With `CNC(=O)c1cc(Oc2ccc(NC(=O)Nc3ccc(Cl)c(C(F)(F)F)c3)cc2)ccn1` [Sorafenib] the EC50 (SARS-CoV-2 [2]; [5]) was over 5.67 µM, the “HeLa-ACE2 CC50/CoV-2 EC50” value (SARS-CoV-2 [1]) was over 1.52 and the CC50 (in vitro; [4]) was over 8.65 µM.
Work on `NC1(C(=O)N[C@@H](CCO)c2ccc(Cl)cc2)CCN(c2nc[nH]c3nccc2-3)CC1` [AZD-5363] yielded an EC50 (HeLa-ACE2 cells; read-out: HeLa-ACE-2 EC50 [μM] (Geomeans, n ≥ 2)) of over 3.39 µM and an EC50 (SARS-CoV-2 [1]; read-out: CoV-2 EC50 [μM] (Geomeans, n ≥ 2), Table 1, HeLa-ACE2, 24 h) of over 4.63 µM.
With `CN(C)CC1=C[CH]([Fe][CH]2C=CC=C2)C=C1CNc1ccnc2cc(Cl)ccc12` (stereo not drawn) [Ferroquine] the “HeLa-ACE2 CC50/CoV-2 EC50” value (SARS-CoV-2 [1]) was 10.29 and the CC50 (in vitro; [4]) was 13.4 µM.
